Measurements as given in patent US20220071989A1, “METHODS OF TREATING NEGATIVE SYMPTOMS OF SCHIZOPHRENIA USING DEUTERATED DEXTROMETHORPHAN AND QUINIDINE” (AVANIR PHARMACEUTICALS, INC., priority 2019, published 2022).
Counter-ions that a name gives are not always drawn.

Experiments:
[1] = Plasma concentrations of d6-DM, d3-DX, d3-3-MM and Q (Example 1); details: 2 to 3 hours after morning dose
Procedure: Plasma samples were separated by centrifugation and then frozen at −20° C. until assayed at the analytical unit.

[2] = PK parameters (Cmax, AUC) estimated from measured drug concentrations with a PK model (Example 1); type: in vivo, human
[3] = d6-DM/Q/d6-DM/Q group at Visit 4 (Week 6)
[4] = d6-DM/Q/d6-DM/Q group at Visit 7 (Week 12)
[5] = placebo/d6-DM/Q group at Visit 7 (Week 12)
[6] = Visit 4 (Week 6), d6-DM/Q/d6-DM/Q, All metabolizer types
[7] = Visit 4 (Week 6), d6-DM/Q/d6-DM/Q, Extensive metabolizer subgroup
[8] = Visit 4 (Week 6), d6-DM/Q/d6-DM/Q, Intermediate metabolizer subgroup
[9] = Visit 4 (Week 6), d6-DM/Q/d6-DM/Q, Poor metabolizer subgroup
[10] = Visit 4 (Week 6), d6-DM/Q/d6-DM/Q, Ultra-Rapid metabolizer subgroup
[11] = Visit 7 (Week 12), d6-DM/Q/d6-DM/Q, All metabolizer types
[12] = Visit 7 (Week 12), d6-DM/Q/d6-DM/Q, Extensive metabolizer subgroup
[13] = Visit 7 (Week 12), d6-DM/Q/d6-DM/Q, Intermediate metabolizer subgroup
[14] = Visit 7 (Week 12), d6-DM/Q/d6-DM/Q, Ultra-Rapid metabolizer subgroup
[15] = Visit 7 (Week 12), placebo/d6-DM/Q, All metabolizer types
[16] = Visit 7 (Week 12), placebo/d6-DM/Q, Extensive metabolizer subgroup
[17] = Visit 7 (Week 12), placebo/d6-DM/Q, Intermediate metabolizer subgroup
[18] = Visit 7 (Week 12), placebo/d6-DM/Q, Poor metabolizer subgroup

SMILES: [2H]C([2H])([2H])Oc1ccc2c(c1)[C@]13CCCC[C@@H]1[C@H](C2)N(C([2H])([2H])[2H])CC3 [d6-DM, deuterated [d6]-dextromethorphan hydrobromide]
- mean plasma concentration, all patients [1, 3]: 49.7 ng/mL
- mean plasma concentration, all patients [1, 4]: 53.2 ng/mL
- mean plasma concentration, all patients [1, 5]: 54.0 ng/mL
- AUC, mean (SD) [2, 6]: 456.2 (362.05) h × ng/mL
- AUC, median (min, max) [2, 6]: 355.4 (73, 1793) h × ng/mL
- Cmax, mean (SD) [2, 6]: 51.6 (38.53) ng/mL
- Cmax, median (min, max) [2, 6]: 40.0 (8, 192) ng/mL
- AUC, mean (SD) [2, 7]: 333.3 (255.24) h × ng/mL
- AUC, median (min, max) [2, 7]: 271.9 (73, 1183) h × ng/mL
- Cmax, mean (SD) [2, 7]: 38.2 (27.99) ng/mL
- Cmax, median (min, max) [2, 7]: 32.2 (8, 130) ng/mL
- AUC, mean (SD) [2, 8]: 573.2 (418.66) h × ng/mL
- AUC, median (min, max) [2, 8]: 401.7 (139, 1793) h × ng/mL
- Cmax, mean (SD) [2, 8]: 63.9 (44.15) ng/mL
- Cmax, median (min, max) [2, 8]: 48.1 (17, 192) ng/mL
- AUC, mean (SD) [2, 9]: 204.6 (na) h × ng/mL
- AUC, median (min, max) [2, 9]: 204.6 (205, 205) h × ng/mL
- Cmax, mean (SD) [2, 9]: 28.7 (na) ng/mL
- Cmax, median (min, max) [2, 9]: 28.7 (29, 29) ng/mL
- AUC, mean (SD) [2, 10]: 468.0 (na) h × ng/mL
- AUC, median (min, max) [2, 10]: 468.0 (468, 468) h × ng/mL
- Cmax, mean (SD) [2, 10]: 58.6 (na) ng/mL
- Cmax, median (min, max) [2, 10]: 58.6 (59, 59) ng/mL
- AUC, mean (SD) [2, 11]: 473.4 (375.01) h × ng/mL
- AUC, median (min, max) [2, 11]: 369.4 (70, 1810) h × ng/mL
- Cmax, mean (SD) [2, 11]: 53.4 (40.09) ng/mL
- Cmax, median (min, max) [2, 11]: 42.3 (8, 194) ng/mL
- AUC, mean (SD) [2, 12]: 336.7 (244.01) h × ng/mL
- AUC, median (min, max) [2, 12]: 288.9 (70, 1127) h × ng/mL
- Cmax, mean (SD) [2, 12]: 38.7 (26.74) ng/mL
- Cmax, median (min, max) [2, 12]: 34.1 (8, 124) ng/mL
- AUC, mean (SD) [2, 13]: 601.9 (442.90) h × ng/mL
- AUC, median (min, max) [2, 13]: 375.7 (132, 1810) h × ng/mL
- Cmax, mean (SD) [2, 13]: 67.0 (46.98) ng/mL
- Cmax, median (min, max) [2, 13]: 45.9 (16, 194) ng/mL
- AUC, mean (SD) [2, 14]: 498.8 (na) h × ng/mL
- AUC, median (min, max) [2, 14]: 498.8 (499, 499) h × ng/mL
- Cmax, mean (SD) [2, 14]: 62.1 (na) ng/mL
- Cmax, median (min, max) [2, 14]: 62.1 (62, 62) ng/mL
- AUC, mean (SD) [2, 15]: 439.6 (248.41) h × ng/mL
- AUC, median (min, max) [2, 15]: 413.0 (53, 1081) h × ng/mL
- Cmax, mean (SD) [2, 15]: 50.8 (27.44) ng/mL
- Cmax, median (min, max) [2, 15]: 47.7 (7, 121) ng/mL
- AUC, mean (SD) [2, 16]: 404.3 (239.02) h × ng/mL
- AUC, median (min, max) [2, 16]: 368.0 (53, 1081) h × ng/mL
- Cmax, mean (SD) [2, 16]: 47.2 (26.57) ng/mL
- Cmax, median (min, max) [2, 16]: 44.2 (7, 121) ng/mL
- AUC, mean (SD) [2, 17]: 492.1 (271.83) h × ng/mL
- AUC, median (min, max) [2, 17]: 492.9 (124, 945) h × ng/mL
- Cmax, mean (SD) [2, 17]: 56.2 (29.94) ng/mL
- Cmax, median (min, max) [2, 17]: 56.1 (15, 106) ng/mL
- AUC, mean (SD) [2, 18]: 427.4 (na) h × ng/mL
- AUC, median (min, max) [2, 18]: 427.4 (427, 427) h × ng/mL
- Cmax, mean (SD) [2, 18]: 47.9 (na) ng/mL
- Cmax, median (min, max) [2, 18]: 47.9 (48, 48) ng/mL

SMILES: [2H]C([2H])([2H])Oc1ccc2c(c1)C13CCCCC1C(C2)NCC3 (stereo not shown) [d3-3-MM]
- mean plasma concentration, all patients [1, 3]: 20.5 ng/mL
- mean plasma concentration, all patients [1, 4]: 19.4 ng/mL
- mean plasma concentration, all patients [1, 5]: 23.4 ng/mL
